# Biological target: T1, Recombinant human KIF18A (1-467His-tagged) protein (Homo sapiens, UniProt Q8NI77)
# T1 construct: Recombinant human KIF18A (1-467His-tagged) protein; His; made in house
# Test: KIF18A enzyme assay (microtubule-stimulated ATPase activity, ADP-Glo)
# Assay type: biochemical
# Conditions: 30 nM KIF18A, 75 μM ATP, 30 μg/mL pig microtubules; read-out: Inhibitory activity against KIF18A IC50
# Method in brief: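 Buffer 15 mM Tris pH 7.5, 10 mM MgCl2, 0.01% Pluronic F-68, 1 μM paclitaxel, 30 μg/mL pig microtubules; reactions at room temperature. IC50 from inhibition relative to DMSO.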
# T1 sequence (Q8NI77 1-467): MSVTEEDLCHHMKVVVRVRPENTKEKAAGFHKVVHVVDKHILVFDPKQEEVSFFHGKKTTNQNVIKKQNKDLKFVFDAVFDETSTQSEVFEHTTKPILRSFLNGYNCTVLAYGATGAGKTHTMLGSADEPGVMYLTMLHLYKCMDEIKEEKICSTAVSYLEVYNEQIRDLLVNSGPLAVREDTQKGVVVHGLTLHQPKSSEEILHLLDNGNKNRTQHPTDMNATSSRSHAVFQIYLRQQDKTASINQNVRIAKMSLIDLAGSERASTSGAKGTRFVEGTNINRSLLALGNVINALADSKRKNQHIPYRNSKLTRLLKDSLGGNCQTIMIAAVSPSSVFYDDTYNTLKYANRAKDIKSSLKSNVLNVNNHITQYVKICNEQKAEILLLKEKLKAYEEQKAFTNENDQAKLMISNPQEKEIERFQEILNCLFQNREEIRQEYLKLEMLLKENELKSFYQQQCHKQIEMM
# T1 sequence (P02550 whole entry partner): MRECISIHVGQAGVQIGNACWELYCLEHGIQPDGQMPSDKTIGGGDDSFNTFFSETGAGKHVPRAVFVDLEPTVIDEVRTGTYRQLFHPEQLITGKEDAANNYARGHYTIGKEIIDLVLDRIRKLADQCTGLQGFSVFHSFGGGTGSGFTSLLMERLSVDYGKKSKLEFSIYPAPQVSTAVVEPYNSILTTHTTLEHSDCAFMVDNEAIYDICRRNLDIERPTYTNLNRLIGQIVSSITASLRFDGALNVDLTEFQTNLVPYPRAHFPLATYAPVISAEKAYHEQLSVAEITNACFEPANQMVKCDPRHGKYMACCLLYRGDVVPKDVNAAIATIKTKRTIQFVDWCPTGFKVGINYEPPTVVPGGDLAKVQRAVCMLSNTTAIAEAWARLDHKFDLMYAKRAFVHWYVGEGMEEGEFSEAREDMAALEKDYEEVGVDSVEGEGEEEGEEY
# T1 sequence (P02554 whole entry partner): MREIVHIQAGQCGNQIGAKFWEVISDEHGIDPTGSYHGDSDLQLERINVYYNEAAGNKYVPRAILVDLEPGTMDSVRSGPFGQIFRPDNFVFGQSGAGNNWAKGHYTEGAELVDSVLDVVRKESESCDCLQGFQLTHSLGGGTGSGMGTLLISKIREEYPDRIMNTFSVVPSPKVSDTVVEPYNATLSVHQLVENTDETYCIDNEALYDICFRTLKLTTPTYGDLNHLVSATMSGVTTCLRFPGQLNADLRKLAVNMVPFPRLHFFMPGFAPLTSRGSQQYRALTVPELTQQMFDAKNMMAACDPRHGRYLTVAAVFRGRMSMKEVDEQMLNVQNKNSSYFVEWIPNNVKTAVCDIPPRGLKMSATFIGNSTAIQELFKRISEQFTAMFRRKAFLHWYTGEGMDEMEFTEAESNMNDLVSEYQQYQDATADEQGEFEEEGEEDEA
row,SMILES,IC50 [nM]
1,C[C@@H]1CN(c2nc(NC(=O)c3cnc(NS(=O)(=O)[C@@H](C)CO)cc3N3CCC4(CC3)CC4)ccc2[N+](=O)[O-])CCO1 [Compound 143],≤ 100
2,C[C@@H]1CN(c2nc(NC(=O)c3cnc(NS(=O)(=O)[C@H](C)CO)cc3N3CCC4(CC3)CC4)ccc2[N+](=O)[O-])CCO1 [Compound 144],≤ 100
3,O=C(Nc1ccc([N+](=O)[O-])c(N2CCC(F)(F)CC2)n1)c1cnc(S(=O)(=O)NCCO)cc1N1CCC2(CC1)CC2 [Compound 145],≤ 100
4,C[C@@H]1CN(c2nc(NC(=O)c3cnc(S(=O)(=O)NCCO)cc3N3CCC4(CC3)CC4)ccc2[N+](=O)[O-])CCO1 [Compound 146],≤ 100
5,C[C@H]1CN(c2nc(NC(=O)c3cnc(S(=O)(=O)NCCO)cc3N3CCC4(CC3)CC4)ccc2[N+](=O)[O-])CCO1 [Compound 147],≤ 100
6,O=C(Nc1ccc([N+](=O)[O-])c(N2CC(F)(F)C2)n1)c1cnc(S(=O)(=O)NCCO)cc1N1CCC2(CC1)CC2 [Compound 148],≤ 100
7,O=C(Nc1ccc([N+](=O)[O-])c(OCCC(F)(F)F)n1)c1cnc(S(=O)(=O)NCCO)cc1N1CCC2(CC1)CC2 [Compound 149],≤ 100
8,O=C(Nc1ccc([N+](=O)[O-])c(N2CCC3(CC3)C2)n1)c1cnc(S(=O)(=O)NCCO)cc1N1CCC2(CC1)CC2 [Compound 150],≤ 100
9,O=C(Nc1ccc([N+](=O)[O-])c(OC2CCC2)n1)c1cnc(S(=O)(=O)NCCO)cc1N1CCC2(CC1)CC2 [Compound 151],≤ 100
10,CC1(F)CCN(c2nc(NC(=O)c3cnc(S(=O)(=O)NCCO)cc3N3CCC4(CC3)CC4)ccc2[N+](=O)[O-])C1 (centres unmarked) [Compound 152],≤ 100
11,O=C(Nc1ccc([N+](=O)[O-])c(N2CCC(F)CC2)n1)c1cnc(S(=O)(=O)NCCO)cc1N1CCC2(CC1)CC2 [Compound 153],≤ 100
12,O=C(Nc1ccc([N+](=O)[O-])c(N2CC3CC3C2)n1)c1cnc(S(=O)(=O)NCCO)cc1N1CCC2(CC1)CC2 (centres unmarked) [Compound 154],≤ 100
13,CC(C)(CO)Nc1nc(NC(=O)c2cnc(S(=O)(=O)NCCO)cc2N2CCC3(CC2)CC3)ccc1[N+](=O)[O-] [Compound 155],≤ 100
14,O=C(Nc1ccc([N+](=O)[O-])c(N2CCOCC2)n1)c1cnc(S(=O)(=O)NCCO)cc1N1CCC2(CC1)CC2 [Compound 156],≤ 100
15,C[C@@H](CO)NS(=O)(=O)c1cc(N2CCC3(CC2)CC3)c(C(=O)Nc2ccc([N+](=O)[O-])c(N3CCC(F)(F)CC3)n2)cn1 [Compound 157],≤ 100
16,C[C@H](CO)NS(=O)(=O)c1cc(N2CCC3(CC2)CC3)c(C(=O)Nc2ccc([N+](=O)[O-])c(N3CCC(F)(F)CC3)n2)cn1 [Compound 158],≤ 100
17,C[C@@H]1CN(c2nc(NC(=O)c3cnc(S(=O)(=O)N[C@@H](C)CO)cc3N3CCC4(CC3)CC4)ccc2[N+](=O)[O-])CCO1 [Compound 159],≤ 100
18,C[C@H](CO)NS(=O)(=O)c1cc(N2CCC3(CC2)CC3)c(C(=O)Nc2ccc([N+](=O)[O-])c(N3CCO[C@H](C)C3)n2)cn1 [Compound 160],≤ 100
19,C[C@@H]1CN(c2nc(C(=O)Nc3ccc(NS(=O)(=O)CCO)cc3N3CCC4(CC3)CC4)ccc2[N+](=O)[O-])CCO1 [Compound 162],≤ 100
20,C[C@H]1CN(c2nc(C(=O)Nc3ccc(NS(=O)(=O)CCO)cc3N3CCC4(CC3)CC4)ccc2[N+](=O)[O-])CCO1 [Compound 163],≤ 100

row,SMILES,IC50 [nM]
1,O=C(Nc1ccc(NS(=O)(=O)CCO)cc1N1CCC2(CC1)CC2)c1ccc([N+](=O)[O-])c(N2CC(F)(F)C2)n1 [Compound 164],≤ 100
2,O=C(Nc1ccc(NS(=O)(=O)CCO)cc1N1CCC2(CC1)CC2)c1ccc([N+](=O)[O-])c(OCCC(F)(F)F)n1 [Compound 165],≤ 100
3,O=C(Nc1ccc(NS(=O)(=O)CCO)cc1N1CCC2(CC1)CC2)c1ccc([N+](=O)[O-])c(N2CCC3(CC3)C2)n1 [Compound 166],≤ 100
4,O=C(Nc1ccc(NS(=O)(=O)CCO)cc1N1CCC2(CC1)CC2)c1ccc([N+](=O)[O-])c(OC2CCC2)n1 [Compound 167],≤ 100
5,CC1(F)CCN(c2nc(C(=O)Nc3ccc(NS(=O)(=O)CCO)cc3N3CCC4(CC3)CC4)ccc2[N+](=O)[O-])C1 (centres unmarked) [Compound 168],≤ 100
6,O=C(Nc1ccc(NS(=O)(=O)CCO)cc1N1CCC2(CC1)CC2)c1ccc([N+](=O)[O-])c(N2CCC(F)CC2)n1 [Compound 169],≤ 100
7,O=C(Nc1ccc(NS(=O)(=O)CCO)cc1N1CCC2(CC1)CC2)c1ccc([N+](=O)[O-])c(N2CC3CC3C2)n1 (centres unmarked) [Compound 170],≤ 100
8,CC(C)(CO)Nc1nc(C(=O)Nc2ccc(NS(=O)(=O)CCO)cc2N2CCC3(CC2)CC3)ccc1[N+](=O)[O-] [Compound 171],≤ 100
9,O=C(Nc1ccc(NS(=O)(=O)CCO)cc1N1CCC2(CC1)CC2)c1ccc([N+](=O)[O-])c(N2CCOCC2)n1 [Compound 172],≤ 100
10,C[C@@H](CO)S(=O)(=O)Nc1ccc(NC(=O)c2ccc([N+](=O)[O-])c(N3CCC(F)(F)CC3)n2)c(N2CCC3(CC2)CC3)c1 [Compound 173],≤ 100
11,C[C@H](CO)S(=O)(=O)Nc1ccc(NC(=O)c2ccc([N+](=O)[O-])c(N3CCC(F)(F)CC3)n2)c(N2CCC3(CC2)CC3)c1 [Compound 174],≤ 100
12,C[C@@H]1CN(c2nc(C(=O)Nc3ccc(NS(=O)(=O)[C@@H](C)CO)cc3N3CCC4(CC3)CC4)ccc2[N+](=O)[O-])CCO1 [Compound 175],≤ 100
13,C[C@@H]1CN(c2nc(C(=O)Nc3ccc(NS(=O)(=O)[C@H](C)CO)cc3N3CCC4(CC3)CC4)ccc2[N+](=O)[O-])CCO1 [Compound 176],≤ 100
14,O=C(Nc1ccc(S(=O)(=O)NCCO)cc1N1CCC2(CC1)CC2)c1ccc([N+](=O)[O-])c(N2CCC(F)(F)CC2)n1 [Compound 177],100 to 500
15,C[C@@H]1CN(c2nc(C(=O)Nc3ccc(S(=O)(=O)NCCO)cc3N3CCC4(CC3)CC4)ccc2[N+](=O)[O-])CCO1 [Compound 178],100 to 500
16,C[C@H]1CN(c2nc(C(=O)Nc3ccc(S(=O)(=O)NCCO)cc3N3CCC4(CC3)CC4)ccc2[N+](=O)[O-])CCO1 [Compound 179],100 to 500
17,O=C(Nc1ccc(S(=O)(=O)NCCO)cc1N1CCC2(CC1)CC2)c1ccc([N+](=O)[O-])c(N2CC(F)(F)C2)n1 [Compound 180],100 to 500
18,O=C(Nc1ccc(S(=O)(=O)NCCO)cc1N1CCC2(CC1)CC2)c1ccc([N+](=O)[O-])c(OCCC(F)(F)F)n1 [Compound 181],100 to 500
19,O=C(Nc1ccc(S(=O)(=O)NCCO)cc1N1CCC2(CC1)CC2)c1ccc([N+](=O)[O-])c(N2CCC3(CC3)C2)n1 [Compound 182],100 to 500
20,O=C(Nc1ccc(S(=O)(=O)NCCO)cc1N1CCC2(CC1)CC2)c1ccc([N+](=O)[O-])c(OC2CCC2)n1 [Compound 183],100 to 500

row,SMILES,IC50 [nM]
1,CC1(F)CCN(c2nc(C(=O)Nc3ccc(S(=O)(=O)NCCO)cc3N3CCC4(CC3)CC4)ccc2[N+](=O)[O-])C1 (centres unmarked) [Compound 184],100 to 500
2,O=C(Nc1ccc(S(=O)(=O)NCCO)cc1N1CCC2(CC1)CC2)c1ccc([N+](=O)[O-])c(N2CCC(F)CC2)n1 [Compound 185],100 to 500
3,O=C(Nc1ccc(S(=O)(=O)NCCO)cc1N1CCC2(CC1)CC2)c1ccc([N+](=O)[O-])c(N2CC3CC3C2)n1 (centres unmarked) [Compound 186],100 to 500
4,CC(C)(CO)Nc1nc(C(=O)Nc2ccc(S(=O)(=O)NCCO)cc2N2CCC3(CC2)CC3)ccc1[N+](=O)[O-] [Compound 187],100 to 500
5,O=C(Nc1ccc(S(=O)(=O)NCCO)cc1N1CCC2(CC1)CC2)c1ccc([N+](=O)[O-])c(N2CCOCC2)n1 [Compound 188],100 to 500
6,C[C@@H](CO)NS(=O)(=O)c1ccc(NC(=O)c2ccc([N+](=O)[O-])c(N3CCC(F)(F)CC3)n2)c(N2CCC3(CC2)CC3)c1 [Compound 189],100 to 500
7,C[C@H](CO)NS(=O)(=O)c1ccc(NC(=O)c2ccc([N+](=O)[O-])c(N3CCC(F)(F)CC3)n2)c(N2CCC3(CC2)CC3)c1 [Compound 190],100 to 500
8,C[C@@H]1CN(c2nc(C(=O)Nc3ccc(S(=O)(=O)N[C@@H](C)CO)cc3N3CCC4(CC3)CC4)ccc2[N+](=O)[O-])CCO1 [Compound 191],100 to 500
9,C[C@H](CO)NS(=O)(=O)c1ccc(NC(=O)c2ccc([N+](=O)[O-])c(N3CCO[C@H](C)C3)n2)c(N2CCC3(CC2)CC3)c1 [Compound 192],100 to 500
10,O=C(Nc1cnc(NS(=O)(=O)CCO)cc1N1CCC2(CC1)CC2)c1ccc([N+](=O)[O-])c(N2CCC(F)(F)CC2)c1 [Compound 193],≤ 100
11,C[C@@H]1CN(c2cc(C(=O)Nc3cnc(NS(=O)(=O)CCO)cc3N3CCC4(CC3)CC4)ccc2[N+](=O)[O-])CCO1 [Compound 194],≤ 100
12,C[C@H]1CN(c2cc(C(=O)Nc3cnc(NS(=O)(=O)CCO)cc3N3CCC4(CC3)CC4)ccc2[N+](=O)[O-])CCO1 [Compound 195],≤ 100
13,O=C(Nc1cnc(NS(=O)(=O)CCO)cc1N1CCC2(CC1)CC2)c1ccc([N+](=O)[O-])c(N2CC(F)(F)C2)c1 [Compound 196],≤ 100
14,O=C(Nc1cnc(NS(=O)(=O)CCO)cc1N1CCC2(CC1)CC2)c1ccc([N+](=O)[O-])c(OCCC(F)(F)F)c1 [Compound 197],≤ 100
15,O=C(Nc1cnc(NS(=O)(=O)CCO)cc1N1CCC2(CC1)CC2)c1ccc([N+](=O)[O-])c(N2CCC3(CC3)C2)c1 [Compound 198],≤ 100
16,O=C(Nc1cnc(NS(=O)(=O)CCO)cc1N1CCC2(CC1)CC2)c1ccc([N+](=O)[O-])c(OC2CCC2)c1 [Compound 199],≤ 100
17,CC1(F)CCN(c2cc(C(=O)Nc3cnc(NS(=O)(=O)CCO)cc3N3CCC4(CC3)CC4)ccc2[N+](=O)[O-])C1 (centres unmarked) [Compound 200],≤ 100
18,O=C(Nc1cnc(NS(=O)(=O)CCO)cc1N1CCC2(CC1)CC2)c1ccc([N+](=O)[O-])c(N2CCC(F)CC2)c1 [Compound 201],≤ 100
19,O=C(Nc1cnc(NS(=O)(=O)CCO)cc1N1CCC2(CC1)CC2)c1ccc([N+](=O)[O-])c(N2CC3CC3C2)c1 (centres unmarked) [Compound 202],≤ 100

# Source: patent US20260158017A1, “KIF18A INHIBITOR” (WIGEN BIOMEDICINE TECHNOLOGY (SHANGHAI) CO., LTD., priority 2021, published 2026)
